The record followed here is US7875604B2, “Compounds that inhibit HIV particle formation” (University of Virginia Patent Foundation, priority 2004, dated 2011).

Each structure is given as a SMILES string. “And” between values parts separate entries of the source, which are not always exact repeats. Identical values can stand only once.

Data set [1] has as its system HeLa. As to the kind of experiment: HIV-1 Rev assay toxicity/non-specificity readout (Firefly Luciferase). It counts as cell-based. The settings on record: 50% inhibition of Firefly Luciferase (toxicity/non-specificity), 24 hours; read-out: TC50 (the source's name). The procedure: (§1) The eight compounds listed in Table 1 were also tested in an assay that measured HIV-1 Rev function. The HIV-1 Rev assay is based upon the use of a reporter for detecting whether drug candidates are capable of inhibiting the function of the viral Rev protein. The reporter used for these assays is the Renilla Luciferase protein, which is an enzyme that produces detectable light when mixed with certain chemicals. For this assay, a cell line has been developed in which the production of the reporter by the cells requires the function of HIV-1 Rev. Therefore, if a drug candidate inhibits the function of Rev, it decreases the amount of the reporter produced by the cells. By using Renilla Luciferase as the reporter, the inhibition of Rev is easily detected as a decrease in the amount of light produced by the cells when mixed with the appropriate chemicals. Furthermore, the cell line for this assay has been engineered to use a second similar reporter (Firefly Luciferase) that detects whether drug candidates are toxic.
Compounds were tested in the Rev assay using the maximum high-test concentration possible based on the supplied stocks as shown in Table 3. Compounds were prepared at a 2× high-test concentration by combining drug stock with tissue culture media at a ratio of 5 μL of drug to 995 μL of media. This 2× high-test sample was subsequently serially diluted in tissue culture media using 1/2 log dilutions. This series of 2× concentrated drug was subsequently diluted 1:1 by combining with an equal volume of cells in media in the 96-well plates used for the assay. Representative data for two of the compounds is also depicted in FIG. 5.
Leptomycin B is a control compound known to inhibit Rev function.

Data set [2] concerns the target T1, HIV-1 Rev (Human immunodeficiency virus type 1 group M subtype B, UniProt P04618).
T1 construct: expressed in transfected cells
As to the kind of experiment: cell-based. The protocol:
as §1, with “The HIV-1 Rev assay is based upon the use of a reporter for detecting whether drug candidates are capable of inhibiting the function of the viral Rev protein.” left out, “chemicals.” for “chemicals. Furthermore, the cell line for this assay has been engineered to use a second similar reporter (Firefly Luciferase) that detects whether drug candidates are toxic.”
Compounds were tested in the Rev assay using the maximum high-test concentration possible based on the supplied stocks as shown in Table 3. Compounds were prepared at a 2× high-test concentration by combining drug stock with tissue culture media at a ratio of 5 μL of drug to 995 μL of media. This 2× high-test sample was subsequently serially diluted in tissue culture media using 1/2 log dilutions. This series of 2× concentrated drug was subsequently diluted 1:1 by combining with an equal volume of cells in media in the 96-well plates used for the assay.

T1 sequence (P04618 whole entry, looked up): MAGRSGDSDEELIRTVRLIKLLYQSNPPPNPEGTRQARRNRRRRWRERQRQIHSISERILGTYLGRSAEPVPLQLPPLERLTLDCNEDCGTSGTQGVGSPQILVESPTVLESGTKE

As for `CCC(=C/[C@H](C)C/C=C/C(C)=C/[C@@H](C)C(=O)[C@@H](C)[C@H](O)[C@@H](C)C/C(C)=C/C(=O)O)/C=C/[C@@H]1OC(=O)C=C[C@@H]1C` [Leptomycin B, reference compound], the CC50 in data set [1] is 20 nM and 19.2 nM. In addition, the IC50 (usually the concentration that inhibits the measured activity by half) in data set [2] (50% inhibition of Renilla Luciferase, 24 hours, HeLa reporter line, read-out: IC50) was 8.22 nM and 8.17 nM. For the same compound, the “TI (TC50/IC50)” value in data set [2] (Rev assay) is 2.43 and 2.35.
